Measurements as given in patent publication US20260325533A1, “CDK INHIBITOR COMPOUNDS” (ALEKSIA THERAPEUTICS, INC., priority 2023, published 2026).
Read-outs that look alike come from different tables or passages of the source.

Experiments:
[1] = molecular target: CDK2/CCNE1 (Homo sapiens, UniProt P24941); assay: CDK2 homogeneous time-resolved fluorescence (HTRF) kinase assay; assay type: biochemical; conditions: CDK2/CCNE
Protocol: (§1) A CDK homogeneous time-resolved fluorescence (HTRF) assay was used to assess the potency of the compounds described herein.
(§2) To an untreated 384-well microtiter plate (ProxiPlate) was added 100 nL 100×test compound in DMSO and 5 μL 2×CDK enzyme in assay buffer (50 mM HEPES, 1 mM EGTA, 10 mM MgCl2, 0.01% Tween 20, 2 mM DTT). The plate was centrifuged at 800 RPM for 1 min then incubated for 20 min at 23 °C. 2.5 μL per well of 4×ATP and 2.5 μL 4×ULight™-eIF4E-binding protein 1 (Thr37/46) Peptide substrate were added to all wells. After addition, the plates were centrifuged at 800 RPM for 1 min. The plates were incubated at 23 °C for 60 min. 5 μL per well 4×EDTA solution were added to each well to stop the reaction. 5 μL 4×LANCE Ultra Europium-anti-phospho-eIF4E-binding protein 1 (Thr37/46) antibody were added to each well and the plate was centrifuged for 1 min at 800 RPM. The plate was incubated for 60 min at 23 °C. Fluorescence was read at 340 nm excitation and 665 nm emission on an En Vision 2105 fluorescence reader. The final concentrations of reagents in the activity assay were 3 nM CDK2/CCNE1, 1 mM ATP, 50 nM ULight™-eIF4E-binding protein 1 (Thr37/46) Peptide substrate, 1% DMSO, 10 mM EDTA, and 2 nM LANCE Ultra Europium-anti-phospho-eIF4E-binding protein 1 (Thr37/46).
(§3) Dose-response titrations were conducted by using an 11-point, half-logarithmic serial dilution scheme typically starting at 10 μM. Signals were reported as fluorescence units at 665 nm or the ratio of fluorescence units at 665 nm/fluorescence units at 615 nm. Signals are referred to below as “Lance signals”.
(§4) Using this assay, the IC50 values of example compounds were determined. Table 3 illustrates the IC50 for various Example compounds of Formula IA. Table 4 illustrates the IC50 for various other Example compounds of Formula I. ND=not determined.

[2] = molecular target: CDK1/CCNB1 (Homo sapiens, UniProt P06493); assay: CDK1 homogeneous time-resolved fluorescence (HTRF) kinase assay; assay type: biochemical; conditions: CDK1/CCNB
Protocol: as §1
as §2, with “were 0.5” for “were 3”, “nM CDK1/CCNB1,” for “nM CDK2/CCNE1,”
as §3, §4

[3] = 25-250 nM marked x, read-out: CDK2/CCNE IC50 25-250 nM
[4] = >250 nM marked x, read-out: CDK1/CCNB IC50 >250 nM
[5] = >250 nM marked x, read-out: CDK2/CCNE IC50 >250 nM
[6] = <25 nM, read-out: CDK2/CCNE IC50 <25 nM

CDK1/CCNB1, sequence (P06493 whole entry): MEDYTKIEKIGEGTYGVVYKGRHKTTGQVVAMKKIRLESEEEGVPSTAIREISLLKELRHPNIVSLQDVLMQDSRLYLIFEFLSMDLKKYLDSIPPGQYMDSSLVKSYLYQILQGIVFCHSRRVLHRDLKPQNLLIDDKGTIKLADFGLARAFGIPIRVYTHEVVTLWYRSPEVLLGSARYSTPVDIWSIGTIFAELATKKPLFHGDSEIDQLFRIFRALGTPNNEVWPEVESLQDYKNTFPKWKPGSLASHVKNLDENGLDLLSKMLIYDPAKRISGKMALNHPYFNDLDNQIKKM
CDK1/CCNB1, sequence (P14635 whole entry partner): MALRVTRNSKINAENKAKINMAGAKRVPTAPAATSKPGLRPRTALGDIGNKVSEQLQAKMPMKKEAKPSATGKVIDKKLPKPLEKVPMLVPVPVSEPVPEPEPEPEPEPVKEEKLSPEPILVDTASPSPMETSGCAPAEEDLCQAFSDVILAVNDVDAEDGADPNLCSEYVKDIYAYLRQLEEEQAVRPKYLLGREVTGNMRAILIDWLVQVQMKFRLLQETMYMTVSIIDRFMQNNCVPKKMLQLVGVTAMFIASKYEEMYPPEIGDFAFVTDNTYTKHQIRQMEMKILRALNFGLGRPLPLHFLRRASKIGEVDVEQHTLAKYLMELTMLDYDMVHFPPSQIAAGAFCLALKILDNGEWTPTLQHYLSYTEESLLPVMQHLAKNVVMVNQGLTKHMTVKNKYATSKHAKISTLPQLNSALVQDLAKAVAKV

Work on `CS(=O)(=O)N1CCC(Nc2cc3c(-c4ccc(C(F)(F)F)nc4)nccc3cn2)CC1` [Ex 62, N-(1-(methylsulfonyl)piperidin-4-yl)-5-(6-(trifluoromethyl)pyridin-3-yl)-2,6-naphthyridin-3-amine] yielded an IC50 [1, 3] of 25 to 250 nM and an IC50 [2, 4] greater than 250 nM.

`CS(=O)(=O)N1CCC(Nc2cc3c(-c4cnc(N)nc4)nccc3cn2)CC1` [Ex 66, 5-(2-aminopyrimidin-5-yl)-N-(1-(methylsulfonyl)piperidin-4-yl)-2,6-naphthyridin-3-amine] gave an IC50 [1, 5] greater than 250 nM and an IC50 [2, 4] greater than 250 nM.

`CS(=O)(=O)N1CCC(Nc2cc3c(-c4cccnc4)nccc3cn2)CC1` [Ex 67, N-(1-(methylsulfonyl)piperidin-4-yl)-5-(pyridin-3-yl)-2,6-naphthyridin-3-amine] gave an IC50 [1, 3] of 25 to 250 nM and an IC50 [2, 4] greater than 250 nM.

For `CS(=O)(=O)N1CCC(Nc2cc3c(/C(C#N)=C/O)nccc3cn2)CC1` [Ex 80, (Z)-3-hydroxy-2-(7-((1-(methylsulfonyl)piperidin-4-yl)amino)-2,6-naphthyridin-1-yl)acrylonitrile], the IC50 [1, 3] was 25 to 250 nM and the IC50 [2, 4] was greater than 250 nM.

Molecule `CS(=O)(=O)N1CCC(Nc2cc3c(-c4ccncc4)nccc3cn2)CC1` [Ex 83, N-(1-(methylsulfonyl)piperidin-4-yl)-5-(pyridin-4-yl)-2,6-naphthyridin-3-amine] has an IC50 [1, 3] of 25 to 250 nM and an IC50 [2, 4] greater than 250 nM.

In the case of `CS(=O)(=O)N1CCC(Nc2cc3c(-c4ccc(CN5CCOCC5)cc4)nccc3cn2)CC1` [Ex 84, N-(1-(methylsulfonyl)piperidin-4-yl)-5-(4-(morpholinomethyl)phenyl)-2,6-naphthyridin-3-amine], the IC50 [1, 3] is reported as 25 to 250 nM and the IC50 [2, 4] is reported as greater than 250 nM.

Molecule `COc1ncc(-c2nccc3cnc(NC4CCN(S(C)(=O)=O)CC4)cc23)cn1` [Ex 85, 5-(2-methoxypyrimidin-5-yl)-N-(1-(methylsulfonyl)piperidin-4-yl)-2,6-naphthyridin-3-amine] has an IC50 [1, 5] greater than 250 nM and an IC50 [2, 4] greater than 250 nM.

For `CS(=O)(=O)N1CCC(Nc2cc3c(-c4ccc(C(=O)O)cc4)nccc3cn2)CC1` [Ex 86, 4-(7-((1-(methylsulfonyl)piperidin-4-yl)amino)-2,6-naphthyridin-1-yl)benzoic acid], the IC50 [1, 5] was greater than 250 nM and the IC50 [2, 4] was greater than 250 nM.

`CS(=O)(=O)N1CCC(Nc2cc3c(-c4cnc5[nH]ccc5c4)nccc3cn2)CC1` [Ex 88, N-(1-(methylsulfonyl)piperidin-4-yl)-5-(1H-pyrrolo[2,3-b]pyridin-5-yl)-2,6-naphthyridin-3-amine] showed an IC50 [1, 3] of 25 to 250 nM and an IC50 [2, 4] greater than 250 nM.

For `CS(=O)(=O)N1CCC(Nc2cc3c(C(=O)NC4CC4)nccc3cn2)CC1` [Ex 93, N-cyclopropyl-7-((1-(methylsulfonyl)piperidin-4-yl)amino)-2,6-naphthyridine-1-carboxamide], the IC50 [1, 5] was greater than 250 nM and the IC50 [2, 4] was greater than 250 nM.

`C=CS(=O)(=O)N1CCC(Nc2cc3c(N4CCC(O)CC4)nccc3cn2)CC1` [Ex 105, 1-(7-((1-(vinylsulfonyl)piperidin-4-yl)amino)-2,6-naphthyridin-1-yl)piperidin-4-ol] showed an IC50 [1, 6] of less than 25 nM and an IC50 [2, 4] greater than 250 nM.

With `C=CS(=O)(=O)N1CCC(Nc2cc3c(-c4cnn(C)c4)nccc3cn2)CC1` [Ex 108, 5-(1-methyl-1H-pyrazol-4-yl)-N-(1-(vinylsulfonyl)piperidin-4-yl)-2,6-naphthyridin-3-amine] the IC50 [1, 3] was 25 to 250 nM and the IC50 [2, 4] was greater than 250 nM.

Work on `C=CS(=O)(=O)N1CCC(Nc2cc3c(-c4ccc(C#N)nc4)nccc3cn2)CC1` [Ex 109, 5-(7-((1-(vinylsulfonyl)piperidin-4-yl)amino)-2,6-naphthyridin-1-yl)picolinonitrile] yielded an IC50 [1, 3] of 25 to 250 nM and an IC50 [2, 4] greater than 250 nM.

`N#CC1CCN(c2nccc3cnc(Nc4ccc(C(=O)ON5C(=O)CCC5=O)cc4)cc23)CC1` [Ex 110, 2,5-dioxopyrrolidin-1-yl 4-((5-(4-cyanopiperidin-1-yl)-2,6-naphthyridin-3-yl)amino)benzoate] showed an IC50 [1, 6] of less than 25 nM and an IC50 ([2]; <25 nM, read-out: CDK1/CCNB IC50 <25 nM) of less than 25 nM.

`N#CC1CCN(c2nccc3cnc(Nc4cccc(C(=O)ON5C(=O)CCC5=O)c4)cc23)CC1` [Ex 111, 2,5-dioxopyrrolidin-1-yl 3-((5-(4-cyanopiperidin-1-yl)-2,6-naphthyridin-3-yl)amino)benzoate] gave an IC50 [1, 3] of 25 to 250 nM and an IC50 [2, 4] greater than 250 nM.

`CS(=O)(=O)N1CCC(Nc2cc3c(N4CCCCC4)nc(C(F)F)cc3cn2)CC1` [Ex 118, 7-(difluoromethyl)-N-(1-(methylsulfonyl)piperidin-4-yl)-5-(piperidin-1-yl)-2,6-naphthyridin-3-amine] gave an IC50 [1, 3] of 25 to 250 nM and an IC50 [2, 4] greater than 250 nM.

Work on `CS(=O)(=O)N1CCC(Nc2cc3c(N4CCCCC4)nc(CCl)cc3cn2)CC1` [Ex 119, 7-(chloromethyl)-N-(1-(methylsulfonyl)piperidin-4-yl)-5-(piperidin-1-yl)-2,6-naphthyridin-3-amine] yielded an IC50 [1, 5] greater than 250 nM and an IC50 [2, 4] greater than 250 nM.

Work on `Cn1cc(-c2nccc3cnc(Nc4ccc(S(C)(=O)=O)cc4)cc23)nn1` [Ex 125, 5-(1-methyl-1H-1,2,3-triazol-4-yl)-N-(4-(methylsulfonyl)phenyl)-2,6-naphthyridin-3-amine] yielded an IC50 [1, 3] of 25 to 250 nM and an IC50 [2, 4] greater than 250 nM.

Molecule `CS(=O)(=O)c1ccc(Nc2cc3c(-c4ccc5[nH]cnc5c4)nccc3cn2)cc1` [Ex 126, 5-(1H-benzo[d]imidazol-5-yl)-N-(4-(methylsulfonyl)phenyl)-2,6-naphthyridin-3-amine] has an IC50 [1, 3] of 25 to 250 nM and an IC50 [2, 4] greater than 250 nM.

With `N#CC1CCN(c2nccc3cnc(Nc4ccc(C=O)cc4)cc23)CC1` [Ex 128, 1-(7-((4-formylphenyl)amino)-2,6-naphthyridin-1-yl)piperidine-4-carbonitrile] the IC50 [1, 3] was 25 to 250 nM and the IC50 [2, 4] was greater than 250 nM.

`N#CC1CCN(c2nccc3cnc(Nc4ccc(CO)cc4)cc23)CC1` [Ex 132, 1-(7-((4-(hydroxymethyl)phenyl)amino)-2,6-naphthyridin-1-yl)piperidine-4-carbonitrile] gave an IC50 [1, 3] of 25 to 250 nM and an IC50 [2, 4] greater than 250 nM.

`N#CC1CCN(c2nccc3cnc(Nc4ccc(CCO)cc4)cc23)CC1` [Ex 133, 1-(7-((4-(2-hydroxyethyl)phenyl)amino)-2,6-naphthyridin-1-yl)piperidine-4-carbonitrile] showed an IC50 [1, 3] of 25 to 250 nM and an IC50 [2, 4] greater than 250 nM.

`N#CC1CCN(c2nccc3cnc(Nc4cccc(CO)c4)cc23)CC1` [Ex 134, 1-(7-((3-(hydroxymethyl)phenyl)amino)-2,6-naphthyridin-1-yl)piperidine-4-carbonitrile] was tested, and the IC50 [1, 3] was 25 to 250 nM and the IC50 [2, 4] was greater than 250 nM.

In the case of `CS(=O)(=O)c1ccc(Nc2cc3c(-c4cc5cc[nH]c5cn4)nccc3cn2)cc1` [Ex 135, N-(4-(methylsulfonyl)phenyl)-5-(1H-pyrrolo[2,3-c]pyridin-5-yl)-2,6-naphthyridin-3-amine], the IC50 [1, 3] is reported as 25 to 250 nM and the IC50 [2, 4] is reported as greater than 250 nM.

`N#CC1CCN(c2nccc3cnc(Nc4cccc(C=O)c4)cc23)CC1` [Ex 140, 1-(7-((3-formylphenyl)amino)-2,6-naphthyridin-1-yl)piperidine-4-carbonitrile] gave an IC50 [1, 3] of 25 to 250 nM and an IC50 [2, 4] greater than 250 nM.

For `N#CC1CCN(c2nccc3cnc(Nc4cccc(CCO)c4)cc23)CC1` [Ex 143, 1-(7-((3-(2-hydroxyethyl)phenyl)amino)-2,6-naphthyridin-1-yl)piperidine-4-carbonitrile], the IC50 [1, 3] was 25 to 250 nM and the IC50 [2, 4] was greater than 250 nM.

`Cn1nncc1-c1nccc2cnc(Nc3ccc(S(C)(=O)=O)cc3)cc12` [Ex 144, 5-(1-methyl-1H-1,2,3-triazol-5-yl)-N-(4-(methylsulfonyl)phenyl)-2,6-naphthyridin-3-amine] showed an IC50 [1, 5] greater than 250 nM and an IC50 [2, 4] greater than 250 nM.
